Experimental data: ChEMBL document CHEMBL3632580, “Structure-activity relationship of indoloquinoline analogs anti-MRSA” (2015)
Values after ≈ are worked out from the molar mass of the structure shown.

Columns and labels:
Assay type in all cases: functional
[1] = tested on: Staphylococcus aureus; experiment: Antibacterial activity against methicillin-resistant Staphylococcus aureus OM481
[2] = tested on: Staphylococcus aureus; experiment: Antibacterial activity against methicillin-resistant Staphylococcus aureus OM584
[3] = tested on: P388; experiment: Antitumor activity against mouse P388 cells implanted in CD2F1 mouse assessed as tumor growth inhibition at 6.25 mg/kg, ip relative to control

Row | SMILES | MIC [1] | MIC [2] | T/C [3]
1 | Clc1cccc(Nc2c3ccccc3nc3c2[nH]c2ccccc23)c1 | 125 mg/L (≈ 364 µM) | 125 mg/L (≈ 364 µM) | –
2 | Oc1ccc(Nc2c3c(nc4ccccc24)-c2ccccc2C3)cc1 | 250 mg/L (≈ 771 µM) | > 250 mg/L | –
3 | Oc1ccc(Nc2c3ccccc3nc3c2[nH]c2ccc(Cl)cc23)cc1 | 8 mg/L (≈ 22.2 µM) | 4 mg/L (≈ 11.1 µM) | –
4 | Fc1ccc(Nc2c3ccccc3nc3c2[nH]c2ccccc23)cc1 | 8 mg/L (≈ 24.4 µM) | 8 mg/L (≈ 24.4 µM) | –
5 | COc1cccc(Nc2c3ccccc3nc3c2[nH]c2ccccc23)c1 | > 250 mg/L | > 250 mg/L | –
6 | COc1cc(NS(C)(=O)=O)ccc1Nc1c2ccccc2nc2c1[nH]c1ccccc12 | 8 mg/L (≈ 18.5 µM) | 16 mg/L (≈ 37 µM) | 300%
7 | Cc1ccc(Nc2c3ccccc3nc3c2[nH]c2ccccc23)cc1 | 62.5 mg/L (≈ 193 µM) | 62.5 mg/L (≈ 193 µM) | –
8 | Cl.Oc1ccc(Nc2c3ccccc3nc3ccccc23)cc1 | 250 mg/L | > 250 mg/L | –
9 | c1ccc(Nc2c3ccccc3nc3c2[nH]c2ccccc23)cc1 | 8 mg/L (≈ 25.9 µM) | 4 mg/L (≈ 12.9 µM) | –
10 | Cl.Oc1ccccc1Nc1c2ccccc2nc2c1[nH]c1ccccc12 | 16 mg/L | 16 mg/L | –
11 | CN(c1ccc(O)cc1)c1c2ccccc2nc2c1[nH]c1ccccc12 | > 250 mg/L | > 250 mg/L | –
12 | Oc1ccc(Nc2c3ccccc3nc3c2oc2ccccc23)cc1 | 2 mg/L (≈ 6.13 µM) | 2 mg/L (≈ 6.13 µM) | –
13 | COc1ccc2[nH]c3c(Nc4ccc(O)cc4)c4ccccc4nc3c2c1 | 2 mg/L (≈ 5.63 µM) | 2 mg/L (≈ 5.63 µM) | –
14 | CC1c2ccccc2-c2nc3ccccc3c(Nc3ccc(O)cc3)c21 (stereo unspecified) | 16 mg/L (≈ 47.3 µM) | 4 mg/L (≈ 11.8 µM) | –
15 | COc1ccc(Nc2c3ccccc3nc3c2[nH]c2ccccc23)cc1 | 16 mg/L (≈ 47.1 µM) | 8 mg/L (≈ 23.6 µM) | –
16 | O=[N+]([O-])c1ccc(Nc2c3ccccc3nc3c2[nH]c2ccccc23)cc1 | > 250 mg/L | > 250 mg/L | –
17 | COc1ccccc1Nc1c2ccccc2nc2c1[nH]c1ccccc12 | > 250 mg/L | > 250 mg/L | –
18 | Cn1c2ccccc2c2nc3ccccc3c(Nc3ccc(O)cc3)c21 | 250 mg/L (≈ 737 µM) | 8 mg/L (≈ 23.6 µM) | –
19 | Clc1ccccc1Nc1c2ccccc2nc2c1[nH]c1ccccc12 | 8 mg/L (≈ 23.3 µM) | 4 mg/L (≈ 11.6 µM) | –
20 | CC(=O)Oc1ccc(Nc2c3ccccc3nc3c2[nH]c2ccccc23)cc1.Cl | 16 mg/L | 8 mg/L | –
21 | Clc1ccc(Nc2c3ccccc3nc3c2[nH]c2ccccc23)cc1 | 8 mg/L (≈ 23.3 µM) | 4 mg/L (≈ 11.6 µM) | –
22 | Cc1ccc2[nH]c3c(Nc4ccc(O)cc4)c4ccccc4nc3c2c1 | 4 mg/L (≈ 11.8 µM) | 2 mg/L (≈ 5.89 µM) | –
23 | Oc1ccc(Nc2c3ccccc3nc3c2[nH]c2ccccc23)cc1 | 4 mg/L (≈ 12.3 µM) | 2 mg/L (≈ 6.15 µM) | –
24 | COc1cc(O)ccc1Nc1c2ccccc2nc2c1[nH]c1ccccc12 | 8 mg/L (≈ 22.5 µM) | 16 mg/L (≈ 45 µM) | –
25 | Oc1cccc(Nc2c3ccccc3nc3c2[nH]c2ccccc23)c1 | 16 mg/L (≈ 49.2 µM) | 8 mg/L (≈ 24.6 µM) | –
